For data set [1] the following is noted: cited from earlier work; for water solubility: atazenavir: as a free base.
The conditions of data set [2]: free base; preclinical animal models; cited from earlier work.
Data set [3] in a line: In vitro dissolution rate of the AZI (2015 Chinese pharmacopoeia, deionized water, 37° C., UV 482 nm). The data set is classed as physicochemical. The settings on record: at 120 min, 100 rpm. Here is the method: The original AZI powder was dissolved in anhydrous ethanol to form a solution with a concentration of 2 mg/ml under ultrasonic dispersion at room temperature. Subsequently, hydrochloric acid (0.1 M) was added into the AZI solution to form a series of AZI solution with different concentrations (16, 32, 48, 64, 80, 96 μg/ml). Then, 5 ml of each AZI sample and 5 ml of sulfuric acid (73.5%) were added into a test tube and mixed, after that the resultant mixture was kept for reaction for 30 min at the room temperature. Finally, UV absorption was measured at a wavelength of 482 nm to determine the concentration of the AZI solution, and a standard AZI curve can be plotted.
The dissolution rate was determined according to the method of 2015 Chinese pharmacopoeia (XC II). Firstly, 2 mg of AZI was placed in 100 ml of deionized water, and stirred at 100 rpm and 37° C. […]
Then, 2 ml sulfuric acid (73.5%) and 2 ml of the resultant filtrate were added to a test tube to form a mixture, and the mixture was kept for 30 min. Finally, UV absorption was measured at a wavelength of 482 nm to determine the AZI concentration. The dissolution rate of AZI was calculated using Eq. 2: Dissolution rate (%)=(Cn×V2+C1×V1+C2×V1+ . . . +Cn-1×V1)×100%/m (2) […]

Values after ≈ are worked out from the molar mass of the structure shown. Where two headings read alike, the source gives them in different places.

Take `CC(C(=O)O)c1ccc2c(c1)[nH]c1ccc(Cl)cc12` (stereo not drawn) [carprofen]: the solubility in water in data set [1] and in data set [1] (value in brackets) was 3.79 µg/mL (≈ 13.8 µM) each time. `COC(=O)N[C@H](C(=O)N[C@@H](Cc1ccccc1)[C@@H](O)CN(Cc1ccc(-c2ccccn2)cc1)NC(=O)[C@@H](NC(=O)OC)C(C)(C)C)C(C)(C)C` [atazenavir]: the water solubility in data set [1] was under 1 µg/mL. Further, in data set [2], the oral bioavailability result is reported as “poor oral bioavailability”. `CCOc1cc(CC(=O)N[C@@H](CC(C)C)c2ccccc2N2CCCCC2)ccc1C(=O)O` [repaglinide]: the water solubility in data set [1] is 37 µg/mL (≈ 81.8 µM). `CC[C@H]1OC(=O)[C@H](C)[C@@H](O[C@H]2C[C@@](C)(OC)[C@@H](O)[C@H](C)O2)[C@H](C)[C@@H](O[C@@H]2O[C@H](C)C[C@H](N(C)C)[C@H]2O)[C@](C)(O)C[C@@H](C)CN(C)[C@H](C)[C@@H](O)[C@]1(C)O` [original AZI, Azithromycin]: the “dissolution rate of AZI” value in data set [3] was found to be 1.31%.

The record behind these values is patent publication US11723867B2, “Method for preparing pharmaceutical composition and pharmaceutical composition” (UPM-Kymmene Corporation, priority 2019, dated 2023).
